Experimental data reported in patent US5571685A (priority 1992, dated 1996).
Where two headings read alike, the source gives them in different places.

Legend:
morphinone reductase [1] = biological target: T1, morphinone reductase (Pseudomonas putida, UniProt Q51990); assay: biochemical; set-up: initiator Met absent; species or system Pseudomonas putida M10; conditions: for remaining activity at 1000 µM: 1 mM; for remaining activity at 1000 µM / remaining activity at 500 µM: read-out: Activity as percentage of control activity; for Inhibition of enzyme (in words): pre-incubation with purified enzyme
Description: Assays were carried out at 30° C.
Purified enzyme was incubated with the following possible inhibitors: copper sulphate, the thiol-blocking agent p-hydroxymercuribenzoate (pHMB), the thiol-reducing agent dithiothreitol (DTT) and the metal-complexing agents ethylenediaminetetraacetic acid (EDTA) and 8- hydroxyquinoline (8HQ). Incubation was in the standard assay mixture without codeinone or NADH, firstly for 30 min at room temperature and secondly for 16 hours at 4° C. The enzyme concentration was approximately 3.3 μg/ml, 1/100 that of the purified enzyme stock.

morphinone reductase [2] = biological target: T1, morphinone reductase; conditions: for Enzyme activity against compound as substrate: forward (reduction) direction, with NADH; for Enzyme activity in the reverse direction: reverse reaction
morphinone reductase [3] = biological target: T1, morphinone reductase; assay: Inhibition of the reaction with codeinone by compounds added to the standard assay mixture; format: biochemical, Pseudomonas putida M10; set-up: initiator Met absent; conditions: for Inhibition of the reaction with codeinone: added at 0.3 mM to the standard assay mixture
Description: Enzyme activity was tested with a variety of substrates.

[4] = biological target: T2, deflavo-morphinone reductase (Pseudomonas putida, UniProt Q51990); assay: Reconstitution of deflavo-morphinone reductase by incubation with flavins; format: biochemical, Pseudomonas putida M10
T2 construct: FMN removed by ammonium sulphate (apoenzyme); initiator Met absent
Description: Flavin was dissociated from morphinone reductase by boiling for 3 minutes and removal of denatured protein by ultrafiltration. […] Thin layer chromatography (TLC) of flavins was performed on silica plates using solvent systems 2 and 4 of Fazekas and Kokai (Met. Enzymol. (1971) 18B:385-398), viz. 12:3:5 n-butanol:acetic acid:water and 2% disodium hydrogen phosphate in water. Flayins on TLC plates were visualised by their yellow fluorescence when illuminated by ultraviolet light at 366 nm. Luciferase assay of flavins was performed using the commercially-availablepreparation of Vibrio harveyii luciferase of Sigma. The reaction mixture contained 0.1 mg/ml luciferase preparation, 0.1 mg/ml bovine serum albumin, 0.2 mM n-decanal, 0.5 mM NADH and 1.5mM dithiothreitol. Assays were carried out at 24° C. and light emission was measured using a BioOrbit 1250 Luminometer (Labsystems (UK) Ltd., Basingstoke, U.K.). Deflavomorphinone reductase was prepared by ammonium sulphate treatment, as described by Husain and Massey (1978) Met. Enzymol. 53:429-437.
The liberated flavin comigrated with flavin mononucleotide (FMN) and not with flavin adenine dinucleotide (FAD) or riboflavin in two thin layer chromatography systems. The liberated flavin gave a positive result in the luciferase assay which is highly specific for FMN (Chappelle and Picciolo, Met. Enzymol (1971) 18B:381-385). […]

morphinone reductase [5] = biological target: T1, morphinone reductase; assay: Coupled enzyme system (morphine dehydrogenase then morphinone reductase), HPLC analysis; format: biochemical, Pseudomonas putida M10; set-up: initiator Met absent
Description: Reverse-phase HPLC analysis was performed on a Waters component system (Millipore Waters U.K. Limited, Watford) consisting of a model 510 pump, a model 712 WISP autoinjector and a Waters 994 programmable photodiode array detector set to 235 nm and 280 nm, 0-1 V fsd. Separation of samples (50 μl ) was achieved on a 5 μm C18 Spherisorb ODS column (4.6×250mm) (Anachem limited, Luton) with an isocratic solvent system, delivered at a flow rate of 1 ml/min. The mobile phase consisted of filter-sterilised 15 mM KH2 PO4 (adjusted to pH 3.5 with 1 M H3 PO4) in 30% (v/v) HPLC grade acetonitrile (degassed for 40 min prior to use). Integrations were performed using Maxima 820 software and UV absorbance scans of resultant peaks were measured between 190 and 350 nm using the programmable photodiode array detector.
At regular intervals, 1 ml samples were removed and the reaction stopped by the addition of 2 μl glacial acetic acid (HPLC grade). The precipitated protein was subsequently pelleted at 13,000 rpm in an MSE microfuge.

[6] = tested on: COc1ccc2c3c1O[C@H]1C(=O)C=C[C@H]4[C@@H](C2)N(C)CC[C@]314; assay: purified protein, by the assay type; conditions: 30.0 °C
[7] = tested on: COc1ccc2c3c1O[C@H]1C(=O)CC=C4[C@@H](C2)N(C)CC[C@]431; assay: purified protein, by the assay type; conditions: 30.0 °C
[8] = tested on: NC(=O)C1=CN([C@@H]2O[C@H](COP(=O)(O)OP(=O)(O)OC[C@H]3O[C@@H](n4cnc5c(N)ncnc54)[C@H](O)[C@@H]3O)[C@@H](O)[C@H]2O)C=CC1; assay: purified protein, by the assay type; conditions: 30.0 °C

Compound `O[C@H](CS)[C@H](O)CS` (racemic) [DTT, dithiothreitol] has a remaining activity at 1000 µM (morphinone reductase [1]; 16 h 4°C.) of 94% and a remaining activity at 1000 µM (morphinone reductase [1]; 0.5 h, 30 min 20°C.) of 94%.

With `O=C1C=CCCC1` [2-cyclohexen-1-one] the “Enzyme activity against compound as substrate” value (shortened to “Enzyme activity … as substrate”) (morphinone reductase [2]) was “Very slight activity” and the “Inhibition of activity against codeinone” value (morphinone reductase [3]; added to the standard assay at 1 mM) was “inhibited the reaction with codeinone”.

`Oc1cccc2cccnc12` [8HQ, 8-hydroxyquinoline] was tested, and the “Activity as percentage of control activity” value (from here on “Activity as percentage”) (morphinone reductase [1]; morphinone reductase, 30 min, 50 µM) was 94 and the “Activity as percentage” value (morphinone reductase [1]; morphinone reductase, 960 min, 50 µM) was 91.

With `COc1ccc2c3c1O[C@H]1C(=O)C=C[C@H]4[C@@H](C2)N(C)CC[C@]314` [Codeinone, codeinone] the “Enzyme activity … as substrate” value (morphinone reductase [2]) was “Activity was detected”.

With `O=S(=O)([O-])[O-].[Cu+2]` [CuSO4, copper sulphate] the “Activity as percentage” value (morphinone reductase [1]; 0.01 Mm, 30 min 20°C.) was 0% and the “Inhibition of enzyme (in words)” value (morphinone reductase [1]) was “highly inhibitory”.

`O=C(O)CN(CCN(CC(=O)O)CC(=O)O)CC(=O)O` [EDTA, ethylenediaminetetraacetic acid] was tested, and the remaining activity at 500 µM (morphinone reductase [1]; 0.5 h) was 100% and the remaining activity at 500 µM (morphinone reductase [1]; 16 h) was 97%.

In the case of `Cc1cc2nc3c(=O)[nH]c(=O)nc-3n(C[C@H](O)[C@H](O)[C@H](O)COP(=O)(O)OP(=O)(O)OC[C@H]3O[C@@H](n4cnc5c(N)ncnc54)[C@H](O)[C@@H]3O)c2cc1C` [FAD, flavin adenine dinucleotide], the “Restoration of enzyme activity after incubation with flavin (in words)” value [4] is reported as “did not cause restoration”.

With `NC(=O)C1=CN([C@@H]2O[C@H](COP(=O)(O)OP(=O)(O)OC[C@H]3O[C@@H](n4cnc5c(N)ncnc54)[C@H](OP(=O)(O)O)[C@@H]3O)[C@@H](O)[C@H]2O)C=CC1` [NADPH] the “Enzyme activity with alternative cofactor” value (morphinone reductase [2]; NADPH replaced NADH) was “No activity”.

`COc1ccc2c3c1O[C@H]1C(=O)CC=C4[C@@H](C2)N(C)CC[C@]431` [Neopinone, neopinone] was tested, and the “Enzyme activity … as substrate” value (morphinone reductase [2]) was “Activity was detected”.

`COc1ccc2c3c1O[C@H]1[C@@H](O)C=C[C@H]4[C@@H](C2)N(C)CC[C@@]341` [codeine] was tested, and the “Enzyme activity … as substrate” value (morphinone reductase [2]) was “No activity”.

`C[C@]12CCC(=O)C=C1CC[C@@H]1[C@@H]2C(=O)C[C@@]2(C)[C@H]1CC[C@]2(O)C(=O)CO` [cortisone] was tested, and the “Enzyme activity … as substrate” value (morphinone reductase [2]) was “No activity” and the “Inhibition of the reaction with codeinone” value (morphinone reductase [3]) was “inhibit greatly”.

With `COc1ccc2c3c1O[C@H]1[C@@H](O)CC[C@H]4[C@@H](C2)N(C)CC[C@@]341` [dihydrocodeine] the “Enzyme activity in the reverse direction” value (morphinone reductase [2]) was “No reverse reaction”.

For `COc1ccc2c3c1O[C@H]1C(=O)CC[C@H]4[C@@H](C2)N(C)CC[C@]314` [hydrocodone], the “Enzyme activity in the reverse direction” value (morphinone reductase [2]) was “No activity in the reverse direction”.

For `COc1ccc2c3c1O[C@H]1[C@H](O)C=C[C@H]4[C@@H](C2)N(C)CC[C@@]341` [isocodeine], the “Enzyme activity … as substrate” value (morphinone reductase [2]) was “No activity”.

`CN1CC[C@]23c4c5ccc(O)c4O[C@H]2C(=O)C=C[C@H]3[C@H]1C5` [morphinone] was tested, and the “Enzyme activity … as substrate” value (morphinone reductase [5]) was “Activity against morphinone was demonstrated”.

`COc1ccc2c3c1O[C@H]1C(=O)CC[C@@]4(O)[C@@H](C2)N(C)CC[C@]314` [oxycodone] was tested, and the “Enzyme activity in the reverse direction” value (morphinone reductase [2]) was “No reverse reaction”.

For `CN1CC[C@]23c4c5ccc(O)c4O[C@H]2C(=O)CC[C@@]3(O)[C@H]1C5` [oxymorphone], the “Enzyme activity in the reverse direction” value (morphinone reductase [2]) was “No reverse reaction”.

In the case of `O=C(O)c1cc[c]([Hg+])cc1.[OH-]` [pHMB, p-hydroxymercuribenzoate], the “Activity as percentage” value (morphinone reductase [1]; 0.01 mM, 30 min 20°C.) is reported as 37%, the “Activity as percentage” value (morphinone reductase [1]; 0.01 mM, 16 h 4°C.) is reported as 19% and the “Activity as percentage” value (morphinone reductase [1]; 0.02 mM, 30 min 20°C.) is reported as 0%. The “Inhibition of enzyme (in words)” value (morphinone reductase [1]) was “highly inhibitory”.

In the case of `CC(=O)[C@H]1CC[C@H]2[C@@H]3CCC4=CC(=O)CC[C@]4(C)[C@H]3CC[C@]12C` [progesterone], the “Enzyme activity … as substrate” value (morphinone reductase [2]) is reported as “No activity” and the “Inhibition of the reaction with codeinone” value (morphinone reductase [3]) is reported as “inhibit greatly”.

“morphinone reductase (Pseudomonas putida)” was tested, and the Km [6] was 250 µM, the Vmax [6] was 32.0 U/mg and the kcat [6] was 44.4 s⁻¹. It also gave a kcat/Km [6] of 178 s⁻¹ mM⁻¹, a Km [7] of 430 µM and a Vmax [7] of 16.6 U/mg. The kcat [7] was 23.0 s⁻¹, the kcat/Km [7] was 53.5 s⁻¹ mM⁻¹ and the Km [8] was 50 µM.
